Each structure is given as a SMILES string.

The target of experiment [1] is T1, ERα (Homo sapiens, UniProt P03372).
T1 construct: host or cells: MCF-7
T1 sequence (P03372 1-595): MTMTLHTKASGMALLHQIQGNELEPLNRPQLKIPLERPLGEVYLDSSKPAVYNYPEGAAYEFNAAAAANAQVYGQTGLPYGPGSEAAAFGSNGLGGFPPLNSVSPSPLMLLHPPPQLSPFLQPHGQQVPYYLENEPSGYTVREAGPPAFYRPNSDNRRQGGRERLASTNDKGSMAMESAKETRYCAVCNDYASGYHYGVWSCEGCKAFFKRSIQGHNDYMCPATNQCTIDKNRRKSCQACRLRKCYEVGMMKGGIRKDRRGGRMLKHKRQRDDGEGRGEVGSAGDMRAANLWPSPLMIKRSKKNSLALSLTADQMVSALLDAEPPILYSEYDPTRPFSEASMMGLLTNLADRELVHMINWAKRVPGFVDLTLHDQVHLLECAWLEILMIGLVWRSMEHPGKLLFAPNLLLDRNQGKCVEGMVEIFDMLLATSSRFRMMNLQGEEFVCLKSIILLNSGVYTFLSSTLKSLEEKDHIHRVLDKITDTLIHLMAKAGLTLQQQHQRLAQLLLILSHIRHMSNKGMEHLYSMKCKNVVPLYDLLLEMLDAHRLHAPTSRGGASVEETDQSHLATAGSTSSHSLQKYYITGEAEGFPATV
The experiment is described as follows: ERα down-regulation immunofluorescence assay in MCF-7 cells. Format: cell-based. The note with it: immunofluorescence of ERα level, read-out: IC50 (nM) ERα down-degradation. How it is done: The down-regulation of the preferred compounds of the present invention on the protein level of ERα is evaluated by immunofluorescence assay using human breast cancer cell line MCF-7. MCF-7 cells used in the experiment were revived directly from frozen cells (about 5×10^6). The MCF-7 frozen cell line (Sigma D5921) purchased from Sigma was stored in DMEM medium containing 2 mM […]. 5% (v/v) Charcoal/Dextran-treated bovine serum […] were added to the revived MCF-7 cells and the cell concentration was determined using Coulter Counter.
The cells used for the test were diluted to 3.75×10^4 cells/mL with culture medium and 40 μL/well of the above cell suspension was transferred to 384-well black transparent bottom plates and incubated overnight at 37° C., 5% CO2. 10 mM compound stock solutions were diluted to a series of test concentrations (10 mM, 0.1 mM, 1 μM, 0.01 μM etc.) and dispensed into cell plates. 20 μL of 11.1% (v/v) aqueous formaldehyde solution (phosphate buffered saline) was added to each of the different concentrations of the test compounds and MCF-7 cell culture solution (40 μL), and the final concentration of formaldehyde in the solution was 3.7% (v/v). Cells were fixed at room temperature for 20 minutes, washed twice with 250 μL of PBS/Proclin, and then 40 μL of PBS/Proclin was added and refrigerated at 4° C. The immunostaining of the protein was performed using the automated AutoElisa kit. The PBS/Proclin solution was aspirated from each plate well and then 40 μL of PBS containing 0.5% Tween 20 (v/v) was added for cell permeation. After one hour, the plate was washed with 250 μL of PBS/0.05% Tween 20/Proclin for three times, and 20 μL of ERα rabbit monoclonal antibody (Thermofisher) in PBS/Tween™ 20/3% (w/v) BSA solution (1:1000) was added. The plates were incubated overnight at 4° C., washed three times with 250 μL of PBS/Tween™ 20/Proclin, and then 20 μL of goat anti-rabbit IgG AlexaFluor 594 or goat anti-rabbit IgG AlexaFluor 488 antibody (containing Hoechst stain (1:5000) in PBS/Tween™ 20/3% (w/v) BSA solution was added, and the system was incubated at room temperature for one hour. After the plates were washed three times with 250 μL of PBS/0.05% (v/v) Tween™ 20/Proclin, 20 μL of PBS was added and the paltes were kept in dark place at 4° C. The level of estrogen receptor ERα in MCF-7 cells was calculated through Cellomics Arrayscan detection of fluorescence emission intensity at two emission wave bands at 594 nm (24-hour time point) and 488 nm (5-hour time point). The average fluorescence emission intensity of each cell is positively correlated with the ERα receptor level of the cell. The primitive fluorescence data was used to obtain the fitting curve by software such as Origin or Genedata. Half maximal inhibitory concentration IC50 was used to characterize the down-regulation of estrogen receptor ERα by the test compounds, which is the concentration of the test compound when the fluorescence emission intensity is reduced to 50% of the average maximum fluorescence intensity.

Experiment [2] concerns MCF-7 human breast cancer cell line. The experiment is described as follows: Inhibition of MCF-7 cell proliferation (CCK-8). Format: cell-based. The note with it: MCF7, MCF-7 cells, 72 hours. How it is done: 1. Reagents and Consumables
Cell Counting Reagent Kit 8 (Cell Counting Kit-8, Cat# CK04-13, Dojindo);
96-well culture plate (Cat #3599, Corning Costar);
Medium and fetal bovine serum (GIBCO);
Desktop Microplate Reader (SpectraMax M5 Microplate Reader, Molecular Devices);
MCF-7 human breast cancer cell line (purchased from Shanghai cell resource center, Chinese Academy of Sciences).
2. Preparation of Reagents
Preparation of culture medium: MEM+10% FBS+0.01 mg/ml Human recombinant insulin; Preparation of the compound: The compounds were diluted with DMSO to a final concentration of 10 mM;
(1) The logarithmic growth phase cells were collected, counted, resuspended the cells with complete culture medium. The cells were adjusted to the appropriate concentration (determined according to the cell density optimization test results) and inoculated into 96-well plates, 100 μL of cell suspension per well. The cells were incubated in an incubator for 24 hours at 37° C. with 100% relative humidity, 5% CO2; […]
(5) The absorbance at 450 nm wavelength was measured on a SpectraMax M5 Microplate Reader after gently shaking. The inhibition rate was calculated using the absorbance at 650 nm as a reference. […]

In the case of `C[C@@H]1Cc2c([nH]c3cccc(F)c23)[C@@H](c2c(F)cc(/C=C/C(=O)O)cc2F)N1CC1(F)CC1` [Example 12, (E)-3-(3,5-difluoro-4-((1R,3R)-5-fluoro-2-((1-fluorocyclopropyl)methyl)-3-methyl-2,3,4,9-tetrahydro-1H-pyrido[3,4-b]indol-1-yl)phenyl)acrylic acid], the DC50 in experiment [1] was 0.1 to 10 nM. In addition, it took 1.45 nM to reach half-maximal inhibition in experiment [2] (IC50).
For `C[C@@H]1Cc2c([nH]c3ccccc23)[C@@H](c2c(F)cc(/C=C/C(=O)O)cc2F)N1CC1(F)CC1` [Example 1, (E)-3-(3,5-difluoro-4-((1R,3R)-2-((1-fluorocyclopropyl)methyl)-3-methyl-2,3,4,9-tetrahydro-1H-pyrido[3,4-b]indol-1-yl)phenyl)acrylic acid], in that order: 0.1 to 10 nM and 0.34 nM.
